These are literature values, as cited in patent US20070071706A1, “Lipodissolving dermatological topical preparation” (priority 2005, published 2007).

Structures are written as SMILES.

For this data set the following is noted: used as transdermal permeability enhancer / carrier; delivered substance erythromycin; rats.

`CC(O)CO` (centres unmarked) [propylene glycol]: the “local accumulation in the subcutaneous tissue of the substance being transdermally delivered” value is “very negligible and short living subcutaneous accumulation”; the “systemic absorption of the substance being transdermally delivered” value was “good systemic absorption”.
